How the values were obtained:
Assay type in all cases: cell-based
[1] = Off-target cytotoxicity, galactose-adapted HepG2 cells (Cell Titer Glo, 5 days); settings: human, galactose-adapted HepG2, five days incubation, intracellular ATP, read-out: CC50 GALHEPG2 CTG 50
Description: (§1) To assess potential off-target toxicity of certain compounds disclosed herein, the in vitro cytotoxicity of those compounds was profiled using a panel of 5 cell lines with various tissue origins. Compound cytotoxicity was examined in hepatoma-derived Huh-7 and HepG2 cells, prostate carcinoma-derived PC-3 cells, lymphoma derived MT-4 cells and a normal diploid lung cell line MRC-5. HepG2 and PC-3 cells used were adapted to grow in glucose-free galactose-containing medium. These cells have a relatively higher sensitivity to inhibitors of mitochondrial oxidative phosphorylation compared to the same cells maintained in standard glucose-containing culture medium (Marroquin et al., Toxicol. Sci. 2007; 97 (2):539-47). Cell viability was determined by measuring intracellular ATP levels following five days of continuous incubation with test compounds.
(§2) The human hepatoma Huh-7 cell line was obtained from ReBLikon GmbH (Mainz, Germany) {20879}. The MT-4 cell line (HTLV-1 transformed, human T lymphoblastoid cells) was obtained from the NIH AIDS Reagent program (Bathesda, Md.). The human hepatoblastoma cell line HepG2, human prostate carcinoma cell line PC-3, and normal fetal lung derived MRC-5 cells were obtained from the American Type Culture Collection (ATCC, Manassas, Va.).
(§3) Huh-7 cells were maintained in Dulbecco's Modified Eagle Medium (DMEM) supplemented with 10% fetal bovine serum (FBS, Hyclone, Logan, Utah), 1% non-essential amino acids (Gibco, Carlsbad, Calif.). PC-3 and HepG2 cells were adapted to grow in 0.2% galactose-containing, glucose-free Dulbecco's Modified Eagle Medium (DMEM) supplemented with 10% fetal bovine serum (FBS, Hyclone, Logan, Utah), 1% non-essential amino acids (Gibco, Carlsbad, Calif.), 1% Pyruvate (Cellgro), 1% Glutamax (Invitrogen, Carlsbad, Calif.). Galactose-adapted cells were maintained in the same culture medium. MRC-5 cells were maintained in Eagle's Minimum Essential Medium (EMEM) supplemented with 10% fetal bovine serum (FBS, Hyclone, Logan, Utah). MT-4 cells were maintained in RPMI-1640 supplemented with 10% fetal bovine serum (FBS, Hyclone, Logan, Utah). All cell culture media were also supplemented with 100 Units/mL penicillin, 100 μg/mL streptomycin (Gibco).
(§4) Using a Biotek uFlow Workstation (Biotek, Winooski, Vt.), 1500 HepG2, 1500 PC-3, 500 Huh7 or 1500 MRC-5 cells in 90 μL of culture media were dispensed into each well of black polystyrene tissue culture-treated 384-well plates. Plated cells were incubated for 24 hours in an incubator at 37° C., 5% CO2 and 90% humidity. Compound serial dilutions were performed in 100% DMSO in 384-well polypropylene (high recovery) plates on a Biomek FX Workstation (Beckman Coulter, Fullerton, Calif.). After 3-fold serial dilutions, 0.4 μL of compounds were transferred into 384-well plates containing cells using a Velocity 11 system equipped with a Bravo 384-well pipettor. The DMSO concentration in the final assay plates was 0.44% (v/v). Cells were incubated with compound(s) for five days at 37° C. Puromycin (44 μM final concentration) and DMSO (0.44%, v/v) were used as a positive and negative controls, respectively
(§5) At the end of the incubation period the cytotoxicity assay was performed as follows: Media from 384-well cell culture plates were aspirated with a Biotek EL405 plate-washer (Biotek) and cells were washed with 100 μL PBS once. Twenty microliters of Cell Titer Glo (Promega, Madison, Wis.) was added to each well of the plates with a Biotek uFlow liquid dispenser. Plates were incubated for 15 minutes at room temperature before luminescence was measured with a Perkin Elmer Envision Plate Reader (Perkin Elmer, Waltham, Mass.).
(§6) CC50 values were defined as the compound concentration that caused a 50% decrease in luminescence signal, and were calculated by non-linear regression using Pipeline Pilot software by applying a four parameter fit equation (Accelrys, San Diego, Calif.). Individual CC50 values are listed as μM concentrations.

[2] = Off-target cytotoxicity, galactose-adapted PC-3 cells (Cell Titer Glo, 5 days); settings: human, galactose-adapted PC-3, five days incubation, intracellular ATP, read-out: CC50 GALFC3 CTG 50
Description: as §1, with “These cells have a relatively higher sensitivity to inhibitors of mitochondrial oxidative phosphorylation compared to the same cells maintained in standard glucose-containing culture medium (Marroquin et al., Toxicol. Sci. 2007; 97 (2):539-47).” left out
as §2, with “The” for “The human hepatoma Huh-7 cell line was obtained from ReBLikon GmbH (Mainz, Germany) {20879}. The”
as §3, with “MT-4 cells were maintained in RPMI-1640 supplemented with 10% fetal bovine serum (FBS, Hyclone, Logan, Utah).” left out
as §4, with “C.” for “C. Puromycin (44 μM final concentration) and DMSO (0.44%, v/v) were used as a positive and negative controls, respectively”
as §5

[3] = Off-target cytotoxicity, Huh-7 cells (Cell Titer Glo, 5 days); settings: human, Huh-7 cells; Huh-7, five days incubation, intracellular ATP; read-out: CC50 HEH7 CTG 50
Description: as §1, §2, §3, §4, §5, §6

MRC-5 cells = assay: Off-target cytotoxicity, MRC-5 cells (Cell Titer Glo, 5 days); settings: MRC-5, five days incubation, intracellular ATP; read-out: CC50 MHCS CTG 50
Description: as §1, §2, §3, §4, §5, §6

[4] = Off-target cytotoxicity, MT-4 cells (Cell Titer Glo, 5 days); settings: human, MT-4, five days incubation, intracellular ATP, read-out: CC50 (MT4)
Description: as §1, with “These cells have a relatively higher sensitivity to inhibitors of mitochondrial oxidative phosphorylation compared to the same cells maintained in standard glucose-containing culture medium (Marroquin et al., Toxicol. Sci. 2007; 97 (2):539-47).” left out
as §2, with “The” for “The human hepatoma Huh-7 cell line was obtained from ReBLikon GmbH (Mainz, Germany) {20879}. The”
as §3, with “MT-4 cells were maintained in RPMI-1640 supplemented with 10% fetal bovine serum (FBS, Hyclone, Logan, Utah).” left out
For the MT-4 cytotoxicity assay, 0.4 μL of serially diluted compounds were added to 40 μl of cell maintenance media in 384-well black, solid bottom plate using a Biomek FX workstation (Beckman Coulter). Two thousand cells in 35 μL were added to each well using a Biotek uFlow Workstation (Biotek). […] Assay plates were incubated for five days at 37° C. in an incubator set at 5% CO2 and 90% humidity. After five days, 22 μL of Cell Titer Glo reagent (Promega) was added to the assay plates with a Biotek uFlow Workstation. Plates were subsequently placed on a Perkin Elmer Envision Plate Reader for five minutes before the luminescence signal was read.

Huh-7 cells = assay: Off-target cytotoxicity, Huh-7 cells (Cell Titer Glo, 5 days); settings: Huh-7, five days incubation, intracellular ATP; read-out: CC50 HEH7 CTG 50
Description: as §1, §2, §3, §4, §5, §6

[5] = Off-target cytotoxicity, MRC-5 cells (Cell Titer Glo, 5 days); settings: human, MRC-5 cells; MRC-5, five days incubation, intracellular ATP; read-out: CC50 MHCS CTG 50
Description: as §1, §2, §3, §4, §5, §6

## CCCC[C@@](C)(Nc1nc(N)nc2cc(F)cnc12)C(C)O (single isomer, unassigned) [Compound 95]
[1]
  CC50 at 5 days: 28.1 µM
[2]
  CC50 at 5 days: 16.8 µM
[3]
  CC50 at 5 days: 31.3 µM
MRC-5 cells
  CC50: 44.4 µM
[4]
  CC50 at 5 days: 44.1 µM

## CCCC[C@@](C)(Nc1nc(N)nc2cccnc12)C(C)O (single isomer, unassigned) [Compound 97]
[1]
  CC50 at 5 days: 33 µM
[2]
  CC50 at 5 days: 27.5 µM
Huh-7 cells
  CC50: 44.4 µM
MRC-5 cells
  CC50: 44.4 µM
[4]
  CC50 at 5 days: 30 µM

## CCCC[C@H](CO)Nc1nc(N)nc2cccnc12 [Compound 15, (R)-2-((2-aminopyrido[3,2-d]pyrimidin-4-yl)amino)hexan-1-ol]
[1]
  CC50 at 5 days: 1.23 µM
[2]
  CC50 at 5 days: 0.69 µM
[3]
  CC50 at 5 days: 19.7 µM
[5]
  CC50 at 5 days: 7.6 µM
[4]
  CC50 at 5 days: 8.62 µM

## CCCC[C@H](CO)Nc1nc(N)nc2cc(F)cnc12 [Compound 44, (R)-2-((2-amino-7-fluoropyrido[3,2-d]pyrimidin-4-yl)amino)hexan-1-ol]
[1]
  CC50 at 5 days: 1.07 µM
[2]
  CC50 at 5 days: 0.52 µM
[3]
  CC50 at 5 days: 9.64 µM
[5]
  CC50 at 5 days: 3.72 µM
[4]
  CC50 at 5 days: 1.97 µM

## CCCC[C@H](CNC(C)=O)Nc1nc(N)nc2cccnc12 [Compound 51, (R)—N-(2-((2-aminopyrido[3,2-d]pyrimidin-4-yl)amino)hexyl)acetamide]
[1]
  CC50 at 5 days: ≥ 44.4 µM
[2]
  CC50 at 5 days: 37.2 µM
Huh-7 cells
  CC50: 44.4 µM
MRC-5 cells
  CC50: 44.4 µM
[4]
  CC50 at 5 days: 57.1 µM

## CCCC[C@](C)(CNC(C)=O)Nc1nc(N)nc2cccnc12 [Compound 61]
[1]
  CC50 at 5 days: ≥ 44.4 µM
[2]
  CC50 at 5 days: 44.4 µM
Huh-7 cells
  CC50: 44.4 µM
MRC-5 cells
  CC50: 44.4 µM
[4]
  CC50 at 5 days: 212 µM

## CCCC[C@@](C)(CO)Nc1nc(N)nc2cc(F)cnc12 [Compound 64, (S)-2-((2-amino-7-fluoropyrido[3,2-d]pyrimidin-4-yl)amino)-2-methylhexan-1-ol]
[1]
  CC50 at 5 days: 3.56 µM
[2]
  CC50 at 5 days: 1.99 µM
[3]
  CC50 at 5 days: 10.4 µM
[5]
  CC50 at 5 days: 6.97 µM
[4]
  CC50 at 5 days: 6.79 µM

## CCCC[C@](C)(CNC(C)=O)Nc1nc(N)nc2cc(Cl)cnc12 [Compound 65, (R)—N-(2-((2-amino-7-chloropyrido[3,2-d]pyrimidin-4-yl)amino)-2-methylhexyl)acetamide]
[1]
  CC50 at 5 days: ≥ 44.4 µM
[2]
  CC50 at 5 days: 44.4 µM
Huh-7 cells
  CC50: 44.4 µM
MRC-5 cells
  CC50: 44.4 µM
[4]
  CC50 at 5 days: 56.6 µM

## CCCC[C@](CO)(Nc1nc(N)nc2cccnc12)C(F)(F)F [Compound 93, (R)-2-((2-aminopyrido[3,2-d]pyrimidin-4-yl)amino)-2-(trifluoromethyl)hexan-1-ol]
[1]
  CC50 at 5 days: 7.73 µM
[2]
  CC50 at 5 days: 3.63 µM
Huh-7 cells
  CC50: 44.4 µM
[5]
  CC50 at 5 days: 38.9 µM
[4]
  CC50 at 5 days: 18.6 µM

## CCCC[C@](C)(CO)Nc1nc(N)nc2cc(F)cnc12 [Compound 98, (R)-2-((2-amino-7-fluoropyrido[3,2-d]pyrimidin-4-yl)amino)-2-methylhexan-1-ol]
[1]
  CC50 at 5 days: 6.7 µM
[2]
  CC50 at 5 days: 4.53 µM
[3]
  CC50 at 5 days: 21.9 µM
[5]
  CC50 at 5 days: 24.4 µM
[4]
  CC50 at 5 days: 16.2 µM

## CCCC[C@](C)(CNC(C)=O)Nc1nc(N)nc2cc(F)cnc12 [Compound 101, (R)—N-(2-((2-amino-7-fluoropyrido[3,2-d]pyrimidin-4-yl)amino)-2-methylhexyl)acetamide]
[1]
  CC50 at 5 days: ≥ 44.4 µM
[2]
  CC50 at 5 days: 44.4 µM
Huh-7 cells
  CC50: 44.4 µM
MRC-5 cells
  CC50: 44.4 µM
[4]
  CC50 at 5 days: 56.6 µM

## CCCC[C@@H](Nc1nc(N)nc2cc(F)cnc12)C(O)CF (stereo partly drawn) [Compound 102, (3R)-3-((2-amino-7-fluoropyrido[3,2-d]pyrimidin-4-yl)amino)-1-fluoroheptan-2-ol]
[1]
  CC50 at 5 days: 27.4 µM
[2]
  CC50 at 5 days: 19.1 µM
Huh-7 cells
  CC50: 44.4 µM
MRC-5 cells
  CC50: 44.4 µM
[4]
  CC50 at 5 days: 57.1 µM
